Experimental data published in patent US10906878B2, “Kinase inhibitors for the treatment of disease” (Dana-Farber Cancer Institute, Inc., priority 2013, dated 2021).

Legend:
Ba/F3 TEL-JAK1 = Ba/F3 TEL-JAK1 (Homo sapiens, UniProt P23458); assay: Inhibition of Ba/F3 TEL-JAK1 cell line; assay type: cell-based; details: read-out: IC50 (μM) Ba/F3 TEL-JAK1
Description: (§1) Growth and inhibition of growth was assessed by MTS assay. This assay, a colorimetric method for determining the number of viable cells, is based on the bioreduction of 3-(4,5-dimethylthiazol-2-yl)-5-(3-carboxymethoxyphenyl)-2-(4-sulfophenyl)-2H-tetrazolium (MTS) by cells to a formazan product that is soluble in cell culture medium, can be detected spectrophotometrically and was performed according to the manufacturer's recommended conditions. Ba/F3 cells were exposed to treatment for 72 hours and the number of cells used per experiment determined empirically to assure linear growth kinetics over that time period. All experimental points were set up in six to twelve wells and all experiments were repeated at least three times. […] The curves were fitted using a non-linear regression model with a sigmoidal dose response.

Ba/F3 TEL-JAK3 = Ba/F3 TEL-JAK3 (Homo sapiens, UniProt P52333); assay: Inhibition of Ba/F3 TEL-JAK3 cell line; assay type: cell-based; details: read-out: IC50 (μM) Ba/F3 TEL-JAK3
Description: as §1

TXK = TXK (Homo sapiens (Human), UniProt P42681); assay: Kinase inhibition TXK; assay type: biochemical
TEC = TEC (Homo sapiens (Human), UniProt P42680); assay: Kinase inhibition TEC; assay type: biochemical
BLK = BLK (Homo sapiens (Human), UniProt P51451); assay: Kinase inhibition BLK; assay type: biochemical
Ba/F3 TEL-ABL = Ba/F3 TEL-ABL (Homo sapiens, UniProt P00519); assay: Inhibition of Ba/F3 TEL-ABL cell line; assay type: cell-based; details: read-out: IC50 (μM) Ba/F3 TEL-ABL
Description: as §1

Ba/F3 TYK2_E957D = Ba/F3 TYK2_E957D (Homo sapiens (Human), UniProt P29597, E957D); assay: Inhibition of Ba/F3 TYK2_E957D cell line; assay type: cell-based; details: read-out: IC50 (μM) Ba/F3 TYK2_E957D
Description: as §1

Ba/F3 TEL-JAK2 = Ba/F3 TEL-JAK2 (Homo sapiens, UniProt O60674); assay: Inhibition of Ba/F3 TEL-JAK2 cell line; assay type: cell-based; details: read-out: IC50 (μM) Ba/F3 TEL-JAK2
Description: as §1

ITK = ITK (Homo sapiens (Human), UniProt Q08881); assay: Kinase inhibition ITK; assay type: biochemical

Ba/F3 TEL-JAK3, sequence (P52333 whole entry, looked up, change not shown): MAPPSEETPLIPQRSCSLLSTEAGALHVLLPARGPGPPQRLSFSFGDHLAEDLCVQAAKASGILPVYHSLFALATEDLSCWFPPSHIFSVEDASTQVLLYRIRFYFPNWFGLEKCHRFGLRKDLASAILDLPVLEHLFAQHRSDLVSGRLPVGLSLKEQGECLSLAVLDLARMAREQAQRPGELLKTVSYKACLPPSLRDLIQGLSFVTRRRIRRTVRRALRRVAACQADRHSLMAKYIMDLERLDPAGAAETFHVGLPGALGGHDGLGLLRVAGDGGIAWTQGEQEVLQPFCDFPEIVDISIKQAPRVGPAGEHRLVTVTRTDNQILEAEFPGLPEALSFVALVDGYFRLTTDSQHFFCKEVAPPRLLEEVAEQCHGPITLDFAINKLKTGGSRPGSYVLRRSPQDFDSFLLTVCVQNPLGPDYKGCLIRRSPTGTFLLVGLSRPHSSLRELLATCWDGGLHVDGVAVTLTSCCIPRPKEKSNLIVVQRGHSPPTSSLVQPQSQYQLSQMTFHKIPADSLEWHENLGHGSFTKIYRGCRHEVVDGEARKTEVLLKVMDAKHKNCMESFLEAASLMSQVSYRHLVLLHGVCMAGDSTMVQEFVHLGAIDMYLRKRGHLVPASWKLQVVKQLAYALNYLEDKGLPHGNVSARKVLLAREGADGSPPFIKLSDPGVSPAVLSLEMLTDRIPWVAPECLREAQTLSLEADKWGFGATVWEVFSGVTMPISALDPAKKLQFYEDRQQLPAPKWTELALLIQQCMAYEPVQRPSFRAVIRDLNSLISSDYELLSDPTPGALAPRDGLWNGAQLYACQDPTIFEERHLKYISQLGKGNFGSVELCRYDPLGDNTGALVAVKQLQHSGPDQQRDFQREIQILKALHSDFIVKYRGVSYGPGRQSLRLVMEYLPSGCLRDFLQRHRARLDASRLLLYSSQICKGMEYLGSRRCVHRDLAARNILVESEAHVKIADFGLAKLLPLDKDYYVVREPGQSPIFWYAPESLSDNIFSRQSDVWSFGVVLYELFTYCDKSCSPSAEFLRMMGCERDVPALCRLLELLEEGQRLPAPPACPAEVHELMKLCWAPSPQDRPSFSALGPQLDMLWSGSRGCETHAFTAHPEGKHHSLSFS
Ba/F3 TYK2_E957D, sequence (P29597 whole entry E957D): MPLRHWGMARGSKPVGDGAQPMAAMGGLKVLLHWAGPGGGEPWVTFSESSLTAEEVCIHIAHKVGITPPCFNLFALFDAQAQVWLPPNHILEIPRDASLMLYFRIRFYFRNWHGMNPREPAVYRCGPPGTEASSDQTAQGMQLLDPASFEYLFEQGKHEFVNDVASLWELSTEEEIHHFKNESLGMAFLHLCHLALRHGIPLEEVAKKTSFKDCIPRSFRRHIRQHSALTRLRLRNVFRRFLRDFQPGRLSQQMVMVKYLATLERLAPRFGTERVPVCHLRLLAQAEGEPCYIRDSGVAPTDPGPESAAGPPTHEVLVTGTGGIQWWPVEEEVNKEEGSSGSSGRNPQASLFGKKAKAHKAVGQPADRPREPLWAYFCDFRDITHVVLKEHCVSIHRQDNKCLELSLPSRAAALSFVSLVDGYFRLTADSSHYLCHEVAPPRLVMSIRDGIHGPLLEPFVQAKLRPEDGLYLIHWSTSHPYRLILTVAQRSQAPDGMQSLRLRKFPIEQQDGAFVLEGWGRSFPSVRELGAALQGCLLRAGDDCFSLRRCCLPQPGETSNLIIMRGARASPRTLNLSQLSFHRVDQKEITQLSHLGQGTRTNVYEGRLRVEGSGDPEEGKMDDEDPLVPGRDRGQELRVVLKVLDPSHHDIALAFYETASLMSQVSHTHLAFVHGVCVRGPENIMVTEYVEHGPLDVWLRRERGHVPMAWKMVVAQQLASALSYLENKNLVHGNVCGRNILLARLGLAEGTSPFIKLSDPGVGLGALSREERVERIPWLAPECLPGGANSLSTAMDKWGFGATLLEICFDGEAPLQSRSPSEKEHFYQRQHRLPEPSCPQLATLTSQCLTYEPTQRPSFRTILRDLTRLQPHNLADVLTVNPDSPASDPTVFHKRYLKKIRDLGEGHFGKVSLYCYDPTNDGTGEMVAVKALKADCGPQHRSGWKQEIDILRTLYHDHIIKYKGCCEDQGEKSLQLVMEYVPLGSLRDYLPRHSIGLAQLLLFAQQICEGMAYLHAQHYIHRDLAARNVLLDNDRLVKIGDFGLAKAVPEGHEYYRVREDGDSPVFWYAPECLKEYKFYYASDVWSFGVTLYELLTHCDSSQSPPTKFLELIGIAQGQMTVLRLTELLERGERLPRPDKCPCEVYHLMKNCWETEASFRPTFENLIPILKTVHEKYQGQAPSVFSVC
Ba/F3 TEL-ABL, sequence (P00519 whole entry, looked up, change not shown): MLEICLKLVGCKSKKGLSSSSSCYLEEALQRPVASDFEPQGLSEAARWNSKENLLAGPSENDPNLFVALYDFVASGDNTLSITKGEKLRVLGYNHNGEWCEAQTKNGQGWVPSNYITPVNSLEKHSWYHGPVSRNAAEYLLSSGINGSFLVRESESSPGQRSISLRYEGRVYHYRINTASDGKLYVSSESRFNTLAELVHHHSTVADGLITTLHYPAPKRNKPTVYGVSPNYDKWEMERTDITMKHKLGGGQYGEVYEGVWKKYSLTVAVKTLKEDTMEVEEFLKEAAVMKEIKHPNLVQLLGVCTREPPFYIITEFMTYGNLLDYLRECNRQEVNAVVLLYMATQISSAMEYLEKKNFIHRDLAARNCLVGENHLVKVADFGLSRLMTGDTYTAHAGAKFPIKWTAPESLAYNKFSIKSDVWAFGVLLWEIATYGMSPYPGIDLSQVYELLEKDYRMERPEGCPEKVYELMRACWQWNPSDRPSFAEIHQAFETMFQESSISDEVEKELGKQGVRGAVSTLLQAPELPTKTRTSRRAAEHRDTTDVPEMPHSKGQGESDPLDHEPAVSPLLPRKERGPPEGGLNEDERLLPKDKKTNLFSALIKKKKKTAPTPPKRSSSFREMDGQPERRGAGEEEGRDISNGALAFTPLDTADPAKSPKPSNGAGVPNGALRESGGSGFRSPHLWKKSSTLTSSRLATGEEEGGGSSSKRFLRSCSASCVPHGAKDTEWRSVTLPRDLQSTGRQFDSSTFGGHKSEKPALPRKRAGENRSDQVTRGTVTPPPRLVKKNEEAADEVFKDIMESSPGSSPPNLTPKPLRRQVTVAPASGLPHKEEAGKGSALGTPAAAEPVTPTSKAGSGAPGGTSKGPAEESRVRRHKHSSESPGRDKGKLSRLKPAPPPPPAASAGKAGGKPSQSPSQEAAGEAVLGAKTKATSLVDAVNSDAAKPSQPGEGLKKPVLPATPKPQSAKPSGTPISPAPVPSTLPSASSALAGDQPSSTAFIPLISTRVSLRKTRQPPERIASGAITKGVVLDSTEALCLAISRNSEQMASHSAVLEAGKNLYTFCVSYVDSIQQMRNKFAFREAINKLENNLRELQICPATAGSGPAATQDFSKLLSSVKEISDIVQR
Ba/F3 TEL-JAK2, sequence (O60674 whole entry, looked up, change not shown): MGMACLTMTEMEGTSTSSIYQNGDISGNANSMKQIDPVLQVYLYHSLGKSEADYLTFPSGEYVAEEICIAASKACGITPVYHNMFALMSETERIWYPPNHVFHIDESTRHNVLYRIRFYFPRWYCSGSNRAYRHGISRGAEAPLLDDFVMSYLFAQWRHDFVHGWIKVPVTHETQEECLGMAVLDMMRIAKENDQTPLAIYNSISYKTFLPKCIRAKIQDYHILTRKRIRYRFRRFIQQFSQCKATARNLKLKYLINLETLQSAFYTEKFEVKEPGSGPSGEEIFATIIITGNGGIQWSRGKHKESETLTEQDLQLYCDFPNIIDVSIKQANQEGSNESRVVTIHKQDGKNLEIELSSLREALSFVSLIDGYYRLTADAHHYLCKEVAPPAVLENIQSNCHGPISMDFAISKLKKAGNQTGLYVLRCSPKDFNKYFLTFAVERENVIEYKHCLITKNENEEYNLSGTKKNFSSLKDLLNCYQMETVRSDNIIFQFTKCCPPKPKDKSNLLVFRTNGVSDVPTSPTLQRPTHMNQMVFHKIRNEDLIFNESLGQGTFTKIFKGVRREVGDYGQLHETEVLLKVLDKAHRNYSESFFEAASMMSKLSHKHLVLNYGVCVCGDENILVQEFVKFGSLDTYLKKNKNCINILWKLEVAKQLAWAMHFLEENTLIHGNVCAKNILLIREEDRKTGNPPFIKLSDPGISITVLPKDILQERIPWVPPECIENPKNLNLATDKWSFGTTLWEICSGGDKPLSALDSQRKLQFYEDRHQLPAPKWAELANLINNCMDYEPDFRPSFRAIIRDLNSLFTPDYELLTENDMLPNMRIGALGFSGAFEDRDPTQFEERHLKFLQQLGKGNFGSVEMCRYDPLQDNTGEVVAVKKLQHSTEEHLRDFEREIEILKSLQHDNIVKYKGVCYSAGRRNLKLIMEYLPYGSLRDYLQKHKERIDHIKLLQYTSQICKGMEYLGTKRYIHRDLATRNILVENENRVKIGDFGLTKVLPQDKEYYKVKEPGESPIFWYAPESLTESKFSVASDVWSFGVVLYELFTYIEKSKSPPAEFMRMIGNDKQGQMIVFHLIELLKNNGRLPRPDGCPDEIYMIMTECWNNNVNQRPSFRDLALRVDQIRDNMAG
TXK, sequence (P42681 whole entry): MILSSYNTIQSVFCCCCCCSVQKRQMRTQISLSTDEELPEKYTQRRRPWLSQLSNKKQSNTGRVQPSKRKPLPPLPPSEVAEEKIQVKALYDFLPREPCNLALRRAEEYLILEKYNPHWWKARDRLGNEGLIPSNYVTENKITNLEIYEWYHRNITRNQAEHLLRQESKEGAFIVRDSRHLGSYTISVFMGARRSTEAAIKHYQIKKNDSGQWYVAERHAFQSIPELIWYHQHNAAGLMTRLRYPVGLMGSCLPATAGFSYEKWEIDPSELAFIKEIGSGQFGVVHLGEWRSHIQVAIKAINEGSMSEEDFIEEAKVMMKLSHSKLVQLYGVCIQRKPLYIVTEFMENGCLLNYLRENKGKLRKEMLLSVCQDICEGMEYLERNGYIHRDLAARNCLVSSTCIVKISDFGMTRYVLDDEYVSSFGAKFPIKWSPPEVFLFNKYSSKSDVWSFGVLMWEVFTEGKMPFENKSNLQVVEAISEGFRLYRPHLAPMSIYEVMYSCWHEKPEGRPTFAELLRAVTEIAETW

Structure (SMILES) | IC50 (Ba/F3 TEL-JAK1) [µM] | IC50 (Ba/F3 TEL-JAK3) [µM] | Kinase inhibition (% control, 1000 nM compound) TXK (TXK) [% control] | Kinase inhibition (% control, 1000 nM compound) TEC (TEC) [% control] | Kinase inhibition (% control, 1000 nM compound) BLK (BLK) [% control] | IC50 (Ba/F3 TEL-ABL) [µM] | IC50 (Ba/F3 TYK2_E957D) [µM] | IC50 (Ba/F3 TEL-JAK2) [µM] | Kinase inhibition (% control, 1000 nM compound) ITK (ITK) [% control]
C=CC(=O)Nc1cccc(N(C(=O)OCc2ccccc2)c2ccnc(Nc3cnn(C)c3)n2)c1 [Compound 83A] | 9 | 0.107 | 3.8 | 5.7 | 0.4 | 16.7 | 2.95 | 17.5 | 66
C=CC(=O)Nc1cccc(N(C(=O)OCc2ccccc2)c2ccnc(Nc3cnn(C4CCOCC4)c3)n2)c1 [Compound 84A] | 7.41 | 0.139 |  |  |  | 11.3 | 4.17 | 18.1 | 
C=CC(=O)Nc1cccc(N(C(=O)OCc2ccccc2)c2ccnc(Nc3cnn(CCN4CCOCC4)c3)n2)c1 [Compound 85A] | 8.86 | 0.189 |  |  |  | 16.1 | 4.37 | 18.3 | 
